Tests used:
[1] = system: A549 human lung carcinoma; test: Antitumor activity on s.c. implanted A549 human lung carcinoma
[2] = system: disseminated L1210 murine leukemia; test: Antileukemic activity against disseminated L1210 murine leukemia (cells injected iv)
MX1 mammary carcinoma = test: Antitumor activity on s.c. injected MX1 mammary carcinoma; assay type: in vivo, mice
[3] = system: H207 human ovarian carcinoma; test: Antitumor activity on s.c. implanted H207 human ovarian carcinoma
[4] = Table 2, CisPlatin alone 3 mg/kg/day iv q4dx2
[5] = Ia alone 1 mg/kg/day iv day +1,2
[6] = Table 2, Ia alone 1.5 mg/kg/day iv q4dx3
[7] = Table 3, Ia alone 2 mg/kg/day iv +7,11,15
[8] = Ia alone 0.5 mg/kg/day iv 8,12,16
[9] = Ia alone 1 mg/kg/day iv 8,12,16
[10] = Ia alone 1.5 mg/kg/day iv q4dx3
[11] = Taxotere alone 5 mg/kg/day iv 10,14,18
[12] = Taxotere alone 10 mg/kg/day iv 10,14,18
[13] = Table 3, Paclitaxel alone 22 mg/kg/day iv +9,13,17
[14] = Table 3, Paclitaxel alone 33 mg/kg/day iv +9,13,17
[15] = Paclitaxel alone 22 mg/kg/day iv q4dx3
[16] = Paclitaxel alone 33 mg/kg/day iv q4dx3

N.N.[Cl][Pt][Cl] [CisPlatin]
N° of Tumor-Free Survivors [1, 4]: 0/9
T-C N° of days (tumor growth delay, 1 g) [1, 4]: 0 days
T.I. % (tumor inhibition) [1, 4]: 16%
Body weight Reduction % (day) ([1]; Table 2, CisPlatin alone 3 mg/kg/day iv q4dx2, day 18): 2(18) %

CC(=O)[C@]1(O)Cc2c(O)c3c(c(O)c2[C@@H](OC2CC(N4CC4)C(OS(C)(=O)=O)C(C)O2)C1)C(=O)c1ccccc1C3=O (some centres unmarked) [Ia, 4-demethoxy-3′-deamino-3′-aziridinyl-4′-methansulfonyl daunorubicin]
ILS % (increase in life span) [2, 5]: 83%
Tox (number of toxic deaths/number of mice) [2, 5]: 0/10
N° of Tumor-Free Survivors [1, 6]: 0/9
T-C N° of days (tumor growth delay, 1 g) [1, 6]: 5 days
T.I. % (tumor inhibition) [1, 6]: 48%
Tox (number of toxic deaths/number of mice) [1, 6]: 0/9
Body weight Reduction % (day) ([1]; Table 2, Ia alone 1.5 mg/kg/day iv q4dx3, day 14): 9(14) %
N° of Tumor-Free Survivors [1, 7]: 0/8
T-C N° of days (tumor growth delay, 1 g) [1, 7]: 9 days
T.I. % (tumor inhibition) [1, 7]: 69%
Tox (number of toxic deaths/number of mice) [1, 7]: 0/8
Body weight Reduction % (day) ([1]; Table 3, Ia alone 2 mg/kg/day iv +7,11,15, day 13): 11%
Body weight Reduction % (day) (MX1 mammary carcinoma; [8]): 0%
N° of Tumor-Free Survivors (MX1 mammary carcinoma; [8]): 0/8
T.I. % (tumor inhibition) (MX1 mammary carcinoma; [8]): 46%
TGD (lg) days (tumor growth delay treated - control) (MX1 mammary carcinoma; [8]): 1 days
Tox (number of toxic deaths/number of mice) (MX1 mammary carcinoma; [8]): 0/8
N° of Tumor-Free Survivors (MX1 mammary carcinoma; [9]): 1/7
T.I. % (tumor inhibition) (MX1 mammary carcinoma; [9]): 94%
TGD (lg) days (tumor growth delay treated - control) (MX1 mammary carcinoma; [9]): 2 days
Tox (number of toxic deaths/number of mice) (MX1 mammary carcinoma; [9]): 0/7
Body weight Reduction % (day) (MX1 mammary carcinoma; Ia alone 1 mg/kg/day iv 8,12,16, day 17): 5%
N° of Tumor-Free Survivors [3, 10]: 0/7
T-C N° of days (tumor growth delay, 1 g) [3, 10]: 47 days
T.I. % (tumor inhibition) [3, 10]: 100%
Tox (number of toxic deaths/number of mice) [3, 10]: 0/7
Body weight Reduction % (day) ([3]; Ia alone 1.5 mg/kg/day iv q4dx3, day 15): 7%

CC(=O)O[C@@]12CO[C@@H]1C[C@H](O)[C@@]1(C)C(=O)[C@H](O)C3=C(C)[C@@H](OC(=O)[C@H](O)[C@@H](NC(=O)OC(C)(C)C)c4ccccc4)C[C@@](O)([C@@H](OC(=O)c4ccccc4)[C@H]21)C3(C)C [Taxotere, Docetaxel]
Body weight Reduction % (day) (MX1 mammary carcinoma; [11]): 0%
N° of Tumor-Free Survivors (MX1 mammary carcinoma; [11]): 0/8
T.I. % (tumor inhibition) (MX1 mammary carcinoma; [11]): 60%
TGD (lg) days (tumor growth delay treated - control) (MX1 mammary carcinoma; [11]): 1 days
Tox (number of toxic deaths/number of mice) (MX1 mammary carcinoma; [11]): 0/8
N° of Tumor-Free Survivors (MX1 mammary carcinoma; [12]): 2/8
T.I. % (tumor inhibition) (MX1 mammary carcinoma; [12]): 99%
TGD (lg) days (tumor growth delay treated - control) (MX1 mammary carcinoma; [12]): 42 days
Tox (number of toxic deaths/number of mice) (MX1 mammary carcinoma; [12]): 0/8
Body weight Reduction % (day) (MX1 mammary carcinoma; Taxotere alone 10 mg/kg/day iv 10,14,18, day 25): 8%

O=C1[O][Pt]2([NH][C@@H]3CCCC[C@H]3[NH]2)[O]C1=O [Oxaliplatinum, Oxaliplatin]
ILS % (increase in life span) ([2]; Oxaliplatinum alone 8 mg/kg/day ip day +3): 83%

CC(=O)O[C@H]1C(=O)[C@@]2(C)[C@H]([C@H](OC(=O)c3ccccc3)[C@]3(O)C[C@H](OC(=O)[C@H](O)[C@@H](NC(=O)c4ccccc4)c4ccccc4)C(C)=C1C3(C)C)[C@]1(OC(C)=O)CO[C@@H]1C[C@@H]2O [Paclitaxel]
Body weight Reduction % (day) [1, 13]: 0%
N° of Tumor-Free Survivors [1, 13]: 0/8
T-C N° of days (tumor growth delay, 1 g) [1, 13]: 27 days
T.I. % (tumor inhibition) [1, 13]: 90%
Tox (number of toxic deaths/number of mice) [1, 13]: 0/8
Body weight Reduction % (day) [1, 14]: 0%
N° of Tumor-Free Survivors [1, 14]: 0/8
T-C N° of days (tumor growth delay, 1 g) [1, 14]: 29 days
T.I. % (tumor inhibition) [1, 14]: 93%
Tox (number of toxic deaths/number of mice) [1, 14]: 0/8
Body weight Reduction % (day) [3, 15]: 0%
N° of Tumor-Free Survivors [3, 15]: 0/7
T-C N° of days (tumor growth delay, 1 g) [3, 15]: 9 days
T.I. % (tumor inhibition) [3, 15]: 80%
Tox (number of toxic deaths/number of mice) [3, 15]: 0/7
N° of Tumor-Free Survivors [3, 16]: 0/7
T-C N° of days (tumor growth delay, 1 g) [3, 16]: 12 days
T.I. % (tumor inhibition) [3, 16]: 86%
Tox (number of toxic deaths/number of mice) [3, 16]: 0/7
Body weight Reduction % (day) ([3]; Paclitaxel alone 33 mg/kg/day iv q4dx3, day 13): 3%
